These results are taken from patent US8629277B2, “Styrenyl 1,2,4-oxadiazole compounds” (Piramal Enterprises Limited, priority 2010, dated 2014).

Like-named read-outs stand apart in the source and are kept apart here. Some results are limits rather than exact numbers.

Experiment [1] has as its system K562. Briefly: Cell proliferation and cytotoxicity CCK-8 assay. Conditions: Homo sapiens; imatinib sensitive cell line K562; CCK-8, 72 h; read-out: Inhibitory concentrations (IC50) K562. Format: cell-based, human. A general note: Tetrazolium dyes change colour on reduction, which living cells bring about.
The target of experiment [2] is T1, Ba/F3 Bcr-Abl/WT (Homo sapiens, UniProt P00519).
T1 construct: fused on or other part: P11274 (Breakpoint cluster region protein)
As to the kind of experiment: Cell proliferation and cytotoxicity CCK-8 assay. In kind it is cell-based. Conditions: imatinib sensitive cell line; CCK-8, 72 h; read-out: Inhibitory concentrations (IC50) Ba/F3 Bcr-Abl/WT. The text has this: (§1) Cell Proliferation and Cytotoxicity CCK-8 Assay:
(§2) Cell Counting Kit-8 (CCK-8) assay is a sensitive colorimetric assay for the determination of number of viable cells in cell proliferation and cytotoxicity assays. Cell Counting Kit-8 (CCK-8) utilizes Dojindo's highly water-soluble tetrazolium salt. The amount of the formazan dye generated by dehydrogenases in cells is directly proportional to the number of living cells.
(§3) The cell lines described in Table 1 were used to test the antiproliferative activity of the compounds of the present invention.
(§4) Cells were seeded at a density of ˜5×10^3 per well (0.09 mL) in a transparent 96-well tissue culture plate (NUNC, USA) and allowed to incubate at 37° C., 5% CO2 incubator for 2-6 h. Different concentrations of compounds of the present invention were added to the wells of the culture plate in triplicate. […] Plates were further incubated in an incubator at 37° C. in presence of 5% CO2 for 72 h. 10 μL of the CCK-8 solution was added to each well and plate was incubated for 1-4 h in the incubator. The absorbance was measured at 450 nm using a microplate reader. The percent inhibition and IC50 were calculated in comparison with control values.

The target in experiment [3] is Ba/F3 Bcr-Abl/T315I (Homo sapiens, UniProt P00519, T315I, cells depend on it).
Description: as §1, §2, §3, §4

The target in experiment [4] is T2, Ba/F3 Bcr-Abl/E255K (Homo sapiens, UniProt P00519, E255K, cells depend on it).
T2 construct: fused on or other part: P11274 (Breakpoint cluster region protein)
As to the kind of experiment: Cell proliferation and cytotoxicity CCK-8 assay. In kind it is cell-based. Conditions: mouse, 72 h.

Experiment [5] concerns the target T3, Ba/F3 Bcr-Abl/E255V (Homo sapiens, UniProt P00519, E255V, cells depend on it).
T3 construct: fused on or other part: P11274 (Breakpoint cluster region protein)
Briefly: Cell proliferation and cytotoxicity CCK-8 assay. In kind it is cell-based. Conditions: mouse, 72 h.

The target of experiment [6] is T4, Ba/F3 Bcr-Abl/F359V (Homo sapiens, UniProt P00519, F359V, cells depend on it).
T4 construct: fused on or other part: P11274 (Breakpoint cluster region protein)
Briefly: Cell proliferation and cytotoxicity CCK-8 assay. Format: cell-based. Conditions: mouse, 72 h.

In experiment [7] the target is T5, Ba/F3 Bcr-Abl/H396R (Homo sapiens, UniProt P00519, H396R, cells depend on it).
T5 construct: fused on or other part: P11274 (Breakpoint cluster region protein)
Briefly: Cell proliferation and cytotoxicity CCK-8 assay. Format: cell-based. As to conditions: mouse, 72 h.

Experiment [8] has as its target T6, Ba/F3 Bcr-Abl/M244V (Homo sapiens, UniProt P00519, M244V, cells depend on it).
T6 construct: fused on or other part: P11274 (Breakpoint cluster region protein)
Briefly: Cell proliferation and cytotoxicity CCK-8 assay. In kind it is cell-based. Conditions: mouse, 72 h.

Experiment [9] deals with T7, Ba/F3 Bcr-Abl/Y253F (Homo sapiens, UniProt P00519, Y253F, cells depend on it).
T7 construct: fused on or other part: P11274 (Breakpoint cluster region protein)
Briefly: Cell proliferation and cytotoxicity CCK-8 assay. In kind it is cell-based. As to conditions: mouse, 72 h.

For experiment [10], the target named is T8, Ba/F3 Bcr-Abl/Y253H (Homo sapiens, UniProt P00519, Y253H, cells depend on it).
T8 construct: fused on or other part: P11274 (Breakpoint cluster region protein)
As to the kind of experiment: Cell proliferation and cytotoxicity CCK-8 assay. Format: cell-based. As to conditions: mouse, 72 h.

In experiment [11] the test system is K562. Briefly: Flow cytometric analysis of apoptosis (PI staining). Format: cell-based, human. As to the method:
(§5) Effect of the Compounds of Present Invention in Bcr-Abl Mutated Imatinib Mesylate-Resistant Cell Lines on Cell Cycle and Apoptosis Using Flow Cytometry.
(§6) The assay was carried out as in reference, FEBS Letters, 2007, 581, 7, 1329-1334. […] At the end of incubation, cells were harvested by centrifugation at 1000 rpm for 10 minutes, washed with phosphate buffered saline (PBS) and gradually resuspended in 70% ice-cold ethanol (to facilitate the permeablisation of stains). Cell suspension was stored for a minimum period of 4 h before staining with propidium iodide (PI). Fixed cells were stained with PI (80 μg/mL) in presence of RNase A (50 μg/mL), and read on Becton Dickinson FACS Calibur (USA) for cell cycle analysis.
(In flow cytometry, cells or beads pass a laser one at a time.)

Experiment [12] deals with E255V. The description is as above. Format: cell-based. As to the method:
as §5, §6

Experiment [13] has as its system Y253. The experiment is described as above. Format: cell-based. As to the method:
as §5, §6

The test system of experiment [14] is Ba/F3 Bcr-Abl/T315I. Briefly: In-vivo efficacy in imatinib-resistant xenograft model in SCID mice. Conditions: 200 mpk b.i.d., p.o.
Description: Ba/F3 Bcr-Abl/WT cells and Ba/F3 Bcr-Abl/T315I cells were grown in RPMI1640 medium containing 10% fetal calf serum in 5% CO2 incubator at 37° C. Cells were pelleted by centrifugation at 1000-rpm for 10 minutes. Cells were resuspended in saline to get a count of 80-100×10^6 cells per mL, 0.2 mL of this cell suspension was injected by subcutaneous (s.c.) route in SCID mice. Mice were observed alternate days for palpable tumor mass. Once the tumor size reached a size of 5-7 mm in diameter, animals were randomized into respective treatment groups. Dose of control or test compound was administered every day. Tumor size was recorded at 2-5 day intervals. Tumor weight (mg) was estimated according to the formula for a prolate ellipsoid: {Length (mm)×[width (mm)^2]×0.5} assuming specific gravity to be one and π to be three. Tumor growth in compound treated animals is calculated as T/C (Treated/Control)×100% and Growth inhibition Percent (GI %) was [100−T/C %].
For experiment [15], the system named is Ba/F3 Bcr-Abl/WT. As to the kind of experiment: In-vivo efficacy in imatinib-sensitive xenograft model in SCID mice. As to conditions: 200 mpk b.i.d., p.o. As to the method:
In-vivo efficacy testing of compounds of the present invention in imatinib resistant and imatinib sensitive tumor models was carried out according to the reference Cancer Research, 2002, 62, 7149-7153.
Cell lines Ba/F3 transfectants expressing full-length wild type imatinib sensitive (Ba/F3 Bcr-Abl/WT) or mutated imatinib resistant (Ba/F3 Bcr-Abl/T315I) were used in this study. These recombinant cell lines were licensed from Dr. Brian Druker's laboratory, Howard Hughes Medical Institute, Oregon Health and Science University Cancer Institute, Portland, Oreg., USA.
Required compound was weighed and admixed with 0.5% (w/v) carboxymethylcellulose (CMC) and triturated with Tween-20 (secundum artum) with gradual addition of water to make up the final concentration. Imatinib mesylate was used as a standard.
A group of 110 Severely Combined Immune-Deficient (SCID strain-CBySmn.CB17-Prkdc^scid/J, The Jackson Laboratory, Stock #001803) male mice, 5-6 weeks old, weighing ˜20 g, were used.
Ba/F3 Bcr-Abl/WT cells and Ba/F3 Bcr-Abl/T315I cells were grown in RPMI1640 medium containing 10% fetal calf serum in 5% CO2 incubator at 37° C. Cells were pelleted by centrifugation at 1000-rpm for 10 minutes. […] Tumor size was recorded at 2-5 day intervals. […] Tumor growth in compound treated animals is calculated as T/C (Treated/Control)×100% and Growth inhibition Percent (GI %) was [100−T/C %].

Where [16] appears, read: mouse, ba/f3 bcr-abl/t315i, 72 h.
[17] abbreviates: read-out: Inhibitory concentrations (IC50) Ba/F3 Bcr-Abl/T315I, imatinib resistant cell line, CCK-8, 72 h.

On to `CCCc1noc(C=Cc2ccc(O)c(O)c2)n1` [Compound of Example 3, 4-[2-(3-Propyl-[1,2,4]oxadiazol-5-yl)-vinyl]-benzene-1,2-diol], for which, in [1], the IC50 was in the range of 11 to 100 µM. In addition, the GI50 is under 10 µM in experiment [2]; 2.32 ± 0.68 µM in experiment [3] (setting [16]); under 10 µM in experiment [3] (setting [17]); 5.4 µM in experiment [4]; 2.1 ± 0.75 µM in [5]; 2 ± 0.42 µM in experiment [6]. Further, the GI50 in [7] worked out at 2.25 ± 0.77 µM; in [8], 2.1 µM; in experiment [9], 1.5 ± 0.56 µM; in [10] it was 1.7 ± 0.78 µM. In addition, the “% Apoptosis by Flow Cytometry Analysis” value in experiment [11] (3X IC50, 96 h time point) came out at 5%; in [11] (5X IC50, 48 h time point), 12.7%; in experiment [11] (5X IC50, 96 h time point) it was 3.4%; in experiment [12] (3X IC50, 96 h time point), 78%; in experiment [12] (5X IC50, 48 h time point), 91.2%; in [12] (5X IC50, 96 h time point) it was 90.9%. The “% Apoptosis by Flow Cytometry Analysis” value in experiment [13] (3X IC50, 96 h time point) is 62%; in experiment [13] (5X IC50, 48 h time point) it was 87.5%; in experiment [13] (5X IC50, 96 h time point) it was 94.9%. For the same compound, the “Tumor growth inhibition percent (% GI) Ba/F3 Bcr-Abl/T315I” value in experiment [14] is 54%. Also, the “Tumor growth inhibition percent (% GI) Ba/F3 Bcr-Abl/WT” value in experiment [15] turned out to be 63%.

`Oc1ccc(C=Cc2nc(Cc3ccccc3)no2)cc1O` [Compound of Example 4, 4-[2-(3-Benzyl-[1,2,4]oxadiazol-5-yl)-vinyl]-benzene-1,2-diol]: the IC50 in experiment [1] was in the range of 11 to 100 µM. Besides, the GI50 in experiment [2] is under 10 µM; in [3] (setting [16]) it was 1.88 ± 0.31 µM; in [3] (setting [17]), under 10 µM; in experiment [4], over 10 µM; in [5] it was 4 ± 1.4 µM; in [6], 3 ± 0.7 µM. Moreover, the GI50 in [7] was found to be 3.05 ± 0.07 µM; in experiment [8], 2.3 µM; in experiment [9] it was 2.1 ± 0.14 µM; in experiment [10], 2.5 ± 0.75 µM. The “% Apoptosis by Flow Cytometry Analysis” value in experiment [11] (3X IC50, 96 h time point) was 10%; in [11] (5X IC50, 48 h time point), 12.2%; in [11] (5X IC50, 96 h time point), 5.2%; in experiment [12] (3X IC50, 96 h time point), 94.4%; in [12] (5X IC50, 48 h time point), 93%; in experiment [12] (5X IC50, 96 h time point) it was 97.4%. In addition, the “% Apoptosis by Flow Cytometry Analysis” value is 70.6% in experiment [13] (3X IC50, 96 h time point); 89% in [13] (5X IC50, 48 h time point); 96.6% in [13] (5X IC50, 96 h time point). For the same compound, the “Tumor growth inhibition percent (% GI) Ba/F3 Bcr-Abl/T315I” value in experiment [14] stood at 65%. For the same compound, in experiment [15], the “Tumor growth inhibition percent (% GI) Ba/F3 Bcr-Abl/WT” value is 36%.
